{"source": "paper PMC4621755", "about": "(Chemistry & biology, 2015)", "biological_target": "T1, Acaa2 (Mus musculus, UniProt Q8BWT1)", "T1 sequence (Q8BWT1 1-397)": "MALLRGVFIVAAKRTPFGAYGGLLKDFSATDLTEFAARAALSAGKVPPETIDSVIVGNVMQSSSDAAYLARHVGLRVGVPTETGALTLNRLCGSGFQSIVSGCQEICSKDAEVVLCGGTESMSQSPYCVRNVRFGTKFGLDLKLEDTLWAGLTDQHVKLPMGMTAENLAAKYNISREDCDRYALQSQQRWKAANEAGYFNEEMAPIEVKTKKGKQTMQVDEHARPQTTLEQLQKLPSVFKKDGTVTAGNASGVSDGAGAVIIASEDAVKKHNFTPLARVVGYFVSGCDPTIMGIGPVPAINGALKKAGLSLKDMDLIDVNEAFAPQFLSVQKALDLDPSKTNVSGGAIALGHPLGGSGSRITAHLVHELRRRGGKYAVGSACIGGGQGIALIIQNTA", "assay": "competition against IAyne labelling, in-gel fluorescence", "assay_type": "biochemical", "conditions": "covalent; lysate of overexpressing HEK293T; 30 min preincubation"}
{"smiles": "N#Cc1c(Cl)c(Cl)c(Cl)c(C#N)c1Cl", "note": "[chlorothalonil]", "values": [{"measurement": "% reduction in IAyne labeling at 100 nM", "result": "9.4 ± 1.2", "unit": "%"}]}
